Laboratory results as given in the kinase profiling compilation of Christmann-Franck et al. (2016).
Values belong to the molecule of their own block, whether it stands above or below them.

Columns and labels:
Test in all cases: radiometric filter-binding kinase assay
MAP3K5 (human) = MAP3K5 (human) (UniProt Q99683)
PIM3 (human) = PIM3 (human) (UniProt Q86V86)
IGF1R (human) = IGF1R (human) (UniProt P08069)
MAPKAPK5 (human) = MAPKAPK5 (human) (UniProt Q8IW41)
PIM2 (human) = PIM2 (human) (UniProt Q9P1W9)
Sequence of PIM2 (human) (Q9P1W9 whole entry, looked up): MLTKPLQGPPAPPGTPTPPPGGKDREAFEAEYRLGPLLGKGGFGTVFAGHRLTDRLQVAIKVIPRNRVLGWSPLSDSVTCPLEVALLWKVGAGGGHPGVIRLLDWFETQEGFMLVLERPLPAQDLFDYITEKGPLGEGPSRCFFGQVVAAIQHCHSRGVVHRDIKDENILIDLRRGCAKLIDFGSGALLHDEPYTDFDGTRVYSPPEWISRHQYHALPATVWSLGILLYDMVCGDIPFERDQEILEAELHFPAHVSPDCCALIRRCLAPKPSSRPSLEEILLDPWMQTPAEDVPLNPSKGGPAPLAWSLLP

HIPK3 (human) = HIPK3 (human) (UniProt Q9H422)
MAP2K2 (human) = MAP2K2 (human) (UniProt P36507)
MAPK13 (human) = MAPK13 (human) (UniProt O15264)
Sequence of MAPK13 (human) (O15264 whole entry, looked up): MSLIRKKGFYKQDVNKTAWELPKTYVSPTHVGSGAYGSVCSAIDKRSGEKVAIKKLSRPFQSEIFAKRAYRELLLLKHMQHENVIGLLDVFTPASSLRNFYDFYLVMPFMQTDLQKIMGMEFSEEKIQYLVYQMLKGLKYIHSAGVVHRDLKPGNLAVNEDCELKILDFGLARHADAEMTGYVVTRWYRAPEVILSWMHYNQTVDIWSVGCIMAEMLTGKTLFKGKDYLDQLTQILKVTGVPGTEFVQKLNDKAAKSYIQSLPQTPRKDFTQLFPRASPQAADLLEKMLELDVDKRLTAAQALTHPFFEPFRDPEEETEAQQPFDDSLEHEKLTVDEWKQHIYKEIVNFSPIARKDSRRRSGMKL

PIM1 (human) = PIM1 (human) (UniProt P11309)
BRSK1 (human) = BRSK1 (human) (UniProt Q8TDC3)
MAPK3 (human) = MAPK3 (human) (UniProt P27361)
EPHB4 (human) = EPHB4 (human) (UniProt P54760)
EEF2K (human) = EEF2K (human) (UniProt O00418)
Sequence of EEF2K (human) (O00418 whole entry, looked up): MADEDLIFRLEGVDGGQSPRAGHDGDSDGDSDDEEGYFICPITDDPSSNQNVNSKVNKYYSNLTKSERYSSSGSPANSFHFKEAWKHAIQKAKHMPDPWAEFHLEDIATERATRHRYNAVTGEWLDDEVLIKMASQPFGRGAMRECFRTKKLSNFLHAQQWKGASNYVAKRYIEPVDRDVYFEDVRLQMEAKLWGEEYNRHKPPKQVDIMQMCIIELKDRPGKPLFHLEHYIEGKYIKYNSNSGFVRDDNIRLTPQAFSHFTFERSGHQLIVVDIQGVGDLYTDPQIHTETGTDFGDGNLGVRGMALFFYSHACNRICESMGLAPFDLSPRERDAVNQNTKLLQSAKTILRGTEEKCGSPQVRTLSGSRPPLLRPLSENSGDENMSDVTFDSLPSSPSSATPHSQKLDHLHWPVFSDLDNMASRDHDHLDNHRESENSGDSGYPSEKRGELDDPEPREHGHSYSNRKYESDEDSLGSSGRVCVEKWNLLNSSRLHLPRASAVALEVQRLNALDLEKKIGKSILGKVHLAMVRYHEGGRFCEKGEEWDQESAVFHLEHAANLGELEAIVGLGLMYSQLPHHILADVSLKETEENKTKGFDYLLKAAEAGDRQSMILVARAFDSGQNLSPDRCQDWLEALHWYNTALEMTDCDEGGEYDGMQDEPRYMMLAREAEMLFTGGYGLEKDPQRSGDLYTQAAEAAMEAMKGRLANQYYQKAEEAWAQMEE

MAPKAPK2 (human) = MAPKAPK2 (human) (UniProt P49137)
PRKAA1 or PRKAA2 (rat) = settings: accession and sequence are those of the human protein
MAPK12 (human) = MAPK12 (human) (UniProt P53778)
PAK7 (human) = PAK7 (human) (UniProt Q9P286)
Sequence of PAK7 (human) (Q9P286 whole entry, looked up): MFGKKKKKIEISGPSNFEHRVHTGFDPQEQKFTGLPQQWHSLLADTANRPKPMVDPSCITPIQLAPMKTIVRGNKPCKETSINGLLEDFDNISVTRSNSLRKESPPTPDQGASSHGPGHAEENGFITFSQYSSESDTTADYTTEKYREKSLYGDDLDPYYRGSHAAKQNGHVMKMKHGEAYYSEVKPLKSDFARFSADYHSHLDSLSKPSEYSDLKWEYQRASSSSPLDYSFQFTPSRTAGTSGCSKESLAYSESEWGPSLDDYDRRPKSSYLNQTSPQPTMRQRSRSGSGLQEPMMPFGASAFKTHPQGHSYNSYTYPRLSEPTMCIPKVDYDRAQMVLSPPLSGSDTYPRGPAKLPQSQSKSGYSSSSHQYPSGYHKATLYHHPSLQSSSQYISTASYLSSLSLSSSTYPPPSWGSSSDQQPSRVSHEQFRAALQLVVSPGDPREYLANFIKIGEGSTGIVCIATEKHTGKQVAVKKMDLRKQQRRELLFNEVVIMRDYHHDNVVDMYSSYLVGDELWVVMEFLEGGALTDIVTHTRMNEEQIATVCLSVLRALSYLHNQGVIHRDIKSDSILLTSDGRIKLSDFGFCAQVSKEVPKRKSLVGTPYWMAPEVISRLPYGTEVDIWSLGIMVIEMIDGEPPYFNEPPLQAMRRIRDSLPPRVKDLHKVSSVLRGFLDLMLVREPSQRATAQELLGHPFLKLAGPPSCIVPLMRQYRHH

GSK3B (human) = GSK3B (human) (UniProt P49841)
MELK (human) = MELK (human) (UniProt Q14680)
PRKCZ (human) = PRKCZ (human) (UniProt Q05513)
Sequence of PRKCZ (human) (Q05513 whole entry, looked up): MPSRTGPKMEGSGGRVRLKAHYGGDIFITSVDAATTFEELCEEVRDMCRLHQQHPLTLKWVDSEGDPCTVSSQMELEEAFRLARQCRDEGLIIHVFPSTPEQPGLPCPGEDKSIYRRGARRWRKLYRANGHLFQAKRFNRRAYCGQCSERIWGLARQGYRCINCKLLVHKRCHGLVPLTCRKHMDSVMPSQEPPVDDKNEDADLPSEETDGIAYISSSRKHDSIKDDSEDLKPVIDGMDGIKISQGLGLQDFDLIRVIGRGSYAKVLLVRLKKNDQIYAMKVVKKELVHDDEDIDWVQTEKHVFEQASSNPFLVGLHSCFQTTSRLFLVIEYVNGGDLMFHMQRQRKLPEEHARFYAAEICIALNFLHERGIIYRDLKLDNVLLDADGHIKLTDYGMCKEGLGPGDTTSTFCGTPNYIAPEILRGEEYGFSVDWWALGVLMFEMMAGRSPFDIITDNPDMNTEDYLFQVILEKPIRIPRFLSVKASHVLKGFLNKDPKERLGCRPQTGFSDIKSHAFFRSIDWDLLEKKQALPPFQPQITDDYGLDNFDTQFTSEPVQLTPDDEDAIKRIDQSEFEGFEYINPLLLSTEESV

DYRK1A (human) = DYRK1A (human) (UniProt Q13627)
IKBKE (human) = IKBKE (human) (UniProt Q14164)
CAMKK2 (human) = CAMKK2 (human) (UniProt Q96RR4)
DAPK1 (human) = DAPK1 (human) (UniProt P53355)
MARK1 (human) = MARK1 (human) (UniProt Q9P0L2)
Sequence of MARK1 (human) (Q9P0L2 whole entry, looked up): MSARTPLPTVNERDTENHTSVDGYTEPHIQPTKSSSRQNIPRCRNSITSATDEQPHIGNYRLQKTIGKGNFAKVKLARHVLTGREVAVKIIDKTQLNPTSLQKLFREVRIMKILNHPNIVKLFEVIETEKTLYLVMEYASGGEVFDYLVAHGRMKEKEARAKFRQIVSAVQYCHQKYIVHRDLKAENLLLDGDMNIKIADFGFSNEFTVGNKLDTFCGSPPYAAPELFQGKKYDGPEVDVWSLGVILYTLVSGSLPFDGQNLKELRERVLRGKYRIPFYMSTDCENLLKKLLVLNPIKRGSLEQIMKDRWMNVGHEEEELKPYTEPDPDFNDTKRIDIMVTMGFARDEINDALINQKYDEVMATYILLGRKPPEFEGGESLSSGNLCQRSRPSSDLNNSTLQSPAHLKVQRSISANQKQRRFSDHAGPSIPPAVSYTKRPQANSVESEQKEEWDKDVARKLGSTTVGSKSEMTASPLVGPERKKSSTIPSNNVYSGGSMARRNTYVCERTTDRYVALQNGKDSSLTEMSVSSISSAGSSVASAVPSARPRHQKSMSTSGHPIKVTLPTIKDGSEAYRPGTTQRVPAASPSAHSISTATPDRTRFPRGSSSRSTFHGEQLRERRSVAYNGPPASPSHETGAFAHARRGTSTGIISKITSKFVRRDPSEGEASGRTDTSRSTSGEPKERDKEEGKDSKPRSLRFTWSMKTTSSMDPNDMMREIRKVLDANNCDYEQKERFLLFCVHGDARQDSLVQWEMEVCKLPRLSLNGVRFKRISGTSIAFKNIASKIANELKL

MAPK9 (human) = MAPK9 (human) (UniProt P45984)
SYK (human) = SYK (human) (UniProt P43405)
MAP2K6 (human) = MAP2K6 (human) (UniProt P52564)
FGFR1 (human) = FGFR1 (human) (UniProt P11362)
PRKACA (human) = PRKACA (human) (UniProt P17612)
PHKG1 (human) = PHKG1 (human) (UniProt Q16816)
STK3 (human) = STK3 (human) (UniProt Q13188)
ERBB4 (human) = ERBB4 (human) (UniProt Q15303)
[1] = tested on: SGK1 (human), O00141 [S422D]
Sequence of SGK1 (human), O00141 [S422D] (O00141 whole entry S422D, looked up): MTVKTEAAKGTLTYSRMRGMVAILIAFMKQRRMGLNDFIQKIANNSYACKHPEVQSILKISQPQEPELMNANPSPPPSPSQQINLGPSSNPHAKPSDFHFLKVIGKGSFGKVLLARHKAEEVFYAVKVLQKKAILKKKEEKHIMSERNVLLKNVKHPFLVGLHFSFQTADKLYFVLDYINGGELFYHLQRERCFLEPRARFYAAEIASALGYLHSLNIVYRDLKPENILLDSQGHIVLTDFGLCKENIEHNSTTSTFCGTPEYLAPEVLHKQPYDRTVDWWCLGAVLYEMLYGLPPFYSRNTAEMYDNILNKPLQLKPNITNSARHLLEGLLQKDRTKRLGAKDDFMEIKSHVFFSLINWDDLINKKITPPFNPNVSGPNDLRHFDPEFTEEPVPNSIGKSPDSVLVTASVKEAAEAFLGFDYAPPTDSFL

BRSK2 (human) = BRSK2 (human) (UniProt Q8IWQ3)
MKNK1 (human) = MKNK1 (human) (UniProt Q9BUB5)
Sequence of MKNK1 (human) (Q9BUB5 whole entry, looked up): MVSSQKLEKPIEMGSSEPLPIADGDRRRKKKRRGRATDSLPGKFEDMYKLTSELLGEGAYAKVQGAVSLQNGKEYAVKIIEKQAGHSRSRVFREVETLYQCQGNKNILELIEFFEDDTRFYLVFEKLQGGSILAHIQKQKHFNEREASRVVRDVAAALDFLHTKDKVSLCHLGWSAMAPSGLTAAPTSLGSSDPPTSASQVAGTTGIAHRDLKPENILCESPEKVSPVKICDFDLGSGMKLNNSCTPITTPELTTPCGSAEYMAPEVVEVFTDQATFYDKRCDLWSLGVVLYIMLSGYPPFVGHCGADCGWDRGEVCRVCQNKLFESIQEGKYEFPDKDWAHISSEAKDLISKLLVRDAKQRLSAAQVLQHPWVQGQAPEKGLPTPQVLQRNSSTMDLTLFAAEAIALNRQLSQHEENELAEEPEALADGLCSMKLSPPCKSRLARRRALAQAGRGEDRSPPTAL

residual activity (MAP3K5 (human); compound 0.1 µM): 93%
residual activity (MAP3K5 (human); compound 1.0 µM): 90%
residual activity (MAP3K5 (human); compound 10.0 µM): 91%
residual activity (PIM3 (human); compound 0.1 µM): 105%
residual activity (PIM3 (human); compound 1.0 µM): 103%
residual activity (PIM3 (human); compound 10.0 µM): 84%
residual activity (IGF1R (human); compound 0.1 µM): 112%
residual activity (IGF1R (human); compound 1.0 µM): 99%
residual activity (IGF1R (human); compound 10.0 µM): 89%
residual activity (MAPKAPK5 (human); compound 0.1 µM): 89%
residual activity (MAPKAPK5 (human); compound 1.0 µM): 100%
residual activity (MAPKAPK5 (human); compound 10.0 µM): 60%
residual activity (PIM2 (human); compound 0.1 µM): 98%
residual activity (PIM2 (human); compound 1.0 µM): 104%
residual activity (PIM2 (human); compound 10.0 µM): 92%
residual activity (HIPK3 (human); compound 0.1 µM): 104%
residual activity (HIPK3 (human); compound 10.0 µM): 90%
residual activity (MAP2K2 (human); compound 0.1 µM): 88%
residual activity (MAP2K2 (human); compound 1.0 µM): 91%
residual activity (MAP2K2 (human); compound 10.0 µM): 52%
residual activity (MAPK13 (human); compound 0.1 µM): 89%
residual activity (MAPK13 (human); compound 1.0 µM): 110%
residual activity (MAPK13 (human); compound 10.0 µM): 72%
residual activity (PIM1 (human); compound 0.1 µM): 83%
residual activity (PIM1 (human); compound 1.0 µM): 83%
residual activity (PIM1 (human); compound 10.0 µM): 82%
residual activity (BRSK1 (human); compound 0.1 µM): 88%
residual activity (BRSK1 (human); compound 1.0 µM): 85%
residual activity (BRSK1 (human); compound 10.0 µM): 57%
residual activity (MAPK3 (human); compound 0.1 µM): 89%
residual activity (MAPK3 (human); compound 1.0 µM): 97%
residual activity (MAPK3 (human); compound 10.0 µM): 90%
residual activity (EPHB4 (human); compound 0.1 µM): 96%
residual activity (EPHB4 (human); compound 1.0 µM): 89%
residual activity (EPHB4 (human); compound 10.0 µM): 46%
residual activity (EEF2K (human); compound 0.1 µM): 95%
residual activity (EEF2K (human); compound 1.0 µM): 96%
residual activity (EEF2K (human); compound 10.0 µM): 79%
residual activity (MAPKAPK2 (human); compound 0.1 µM): 81%
residual activity (MAPKAPK2 (human); compound 1.0 µM): 91%
residual activity (MAPKAPK2 (human); compound 10.0 µM): 73%
residual activity (PRKAA1 or PRKAA2 (rat); compound 0.1 µM): 96%
residual activity (PRKAA1 or PRKAA2 (rat); compound 1.0 µM): 59%
residual activity (PRKAA1 or PRKAA2 (rat); compound 10.0 µM): 18%
residual activity (MAPK12 (human); compound 0.1 µM): 78%
residual activity (MAPK12 (human); compound 1.0 µM): 79%
residual activity (PAK7 (human); compound 0.1 µM): 95%
residual activity (PAK7 (human); compound 1.0 µM): 82%
residual activity (PAK7 (human); compound 10.0 µM): 72%
residual activity (GSK3B (human); compound 0.1 µM): 81%
residual activity (GSK3B (human); compound 1.0 µM): 83%
residual activity (GSK3B (human); compound 10.0 µM): 62%
residual activity (MELK (human); compound 0.1 µM): 81%
residual activity (MELK (human); compound 1.0 µM): 54%
residual activity (MELK (human); compound 10.0 µM): 18%
residual activity (PRKCZ (human); compound 0.1 µM): 88%
residual activity (PRKCZ (human); compound 1.0 µM): 93%
residual activity (PRKCZ (human); compound 10.0 µM): 55%
residual activity (DYRK1A (human); compound 0.1 µM): 75%
residual activity (DYRK1A (human); compound 1.0 µM): 40%
residual activity (DYRK1A (human); compound 10.0 µM): 9%
residual activity (IKBKE (human); compound 0.1 µM): 87%
residual activity (IKBKE (human); compound 1.0 µM): 89%
residual activity (IKBKE (human); compound 10.0 µM): 56%
residual activity (CAMKK2 (human); compound 0.1 µM): 43%
residual activity (CAMKK2 (human); compound 1.0 µM): 13%
residual activity (CAMKK2 (human); compound 10.0 µM): 8%
residual activity (DAPK1 (human); compound 0.1 µM): 89%
residual activity (DAPK1 (human); compound 1.0 µM): 91%
residual activity (DAPK1 (human); compound 10.0 µM): 72%
residual activity (MARK1 (human); compound 0.1 µM): 88%
residual activity (MARK1 (human); compound 1.0 µM): 54%
residual activity (MARK1 (human); compound 10.0 µM): 14%
residual activity (MAPK9 (human); compound 0.1 µM): 88%
residual activity (MAPK9 (human); compound 1.0 µM): 103%
residual activity (MAPK9 (human); compound 10.0 µM): 83%
residual activity (SYK (human); compound 0.1 µM): 82%
residual activity (SYK (human); compound 1.0 µM): 80%
residual activity (SYK (human); compound 10.0 µM): 36%
residual activity (MAP2K6 (human); compound 0.1 µM): 87%
residual activity (MAP2K6 (human); compound 1.0 µM): 89%
residual activity (MAP2K6 (human); compound 10.0 µM): 104%
residual activity (FGFR1 (human); compound 0.1 µM): 69%
residual activity (FGFR1 (human); compound 1.0 µM): 20%
residual activity (FGFR1 (human); compound 10.0 µM): 8%
residual activity (PRKACA (human); compound 0.1 µM): 99%
residual activity (PRKACA (human); compound 1.0 µM): 101%
residual activity (PRKACA (human); compound 10.0 µM): 94%
residual activity (PHKG1 (human); compound 0.1 µM): 85%
residual activity (PHKG1 (human); compound 1.0 µM): 60%
residual activity (PHKG1 (human); compound 10.0 µM): 21%
residual activity (STK3 (human); compound 0.1 µM): 102%
residual activity (STK3 (human); compound 1.0 µM): 104%
residual activity (STK3 (human); compound 10.0 µM): 76%
residual activity (ERBB4 (human); compound 0.1 µM): 88%
residual activity (ERBB4 (human); compound 1.0 µM): 76%
residual activity (ERBB4 (human); compound 10.0 µM): 56%
residual activity ([1]; compound 0.1 µM): 62%
residual activity ([1]; compound 1.0 µM): 79%
residual activity ([1]; compound 10.0 µM): 70%
residual activity (BRSK2 (human); compound 0.1 µM): 88%
residual activity (BRSK2 (human); compound 1.0 µM): 68%
residual activity (BRSK2 (human); compound 10.0 µM): 20%
residual activity (MKNK1 (human); compound 0.1 µM): 82%
residual activity (MKNK1 (human); compound 1.0 µM): 63%
residual activity (MKNK1 (human); compound 10.0 µM): 39%
Compound: c1ccc2c(-c3cnn4cc(-c5ccc(N6CCNCC6)cc5)cnc34)ccnc2c1

residual activity (MAP3K5 (human); compound 0.1 µM): 105%
residual activity (MAP3K5 (human); compound 1.0 µM): 88%
residual activity (PIM3 (human); compound 0.1 µM): 104%
residual activity (PIM3 (human); compound 1.0 µM): 111%
residual activity (IGF1R (human); compound 0.1 µM): 90%
residual activity (IGF1R (human); compound 1.0 µM): 105%
residual activity (MAPKAPK5 (human); compound 0.1 µM): 104%
residual activity (MAPKAPK5 (human); compound 1.0 µM): 122%
residual activity (PIM2 (human); compound 0.1 µM): 94%
residual activity (PIM2 (human); compound 1.0 µM): 85%
residual activity (HIPK3 (human); compound 0.1 µM): 91%
residual activity (HIPK3 (human); compound 1.0 µM): 108%
residual activity (MAP2K2 (human); compound 0.1 µM): 106%
residual activity (MAP2K2 (human); compound 1.0 µM): 75%
residual activity (MAPK13 (human); compound 0.1 µM): 88%
residual activity (MAPK13 (human); compound 1.0 µM): 90%
residual activity (PIM1 (human); compound 0.1 µM): 114%
residual activity (PIM1 (human); compound 1.0 µM): 120%
residual activity (BRSK1 (human); compound 0.1 µM): 99%
residual activity (BRSK1 (human); compound 1.0 µM): 82%
residual activity (MAPK3 (human); compound 0.1 µM): 105%
residual activity (MAPK3 (human); compound 1.0 µM): 112%
residual activity (EPHB4 (human); compound 0.1 µM): 101%
residual activity (EPHB4 (human); compound 1.0 µM): 117%
residual activity (EEF2K (human); compound 0.1 µM): 98%
residual activity (EEF2K (human); compound 1.0 µM): 110%
residual activity (MAPKAPK2 (human); compound 0.1 µM): 106%
residual activity (MAPKAPK2 (human); compound 1.0 µM): 114%
residual activity (MAPK12 (human); compound 0.1 µM): 88%
residual activity (MAPK12 (human); compound 1.0 µM): 85%
residual activity (PAK7 (human); compound 0.1 µM): 95%
residual activity (PAK7 (human); compound 1.0 µM): 88%
residual activity (GSK3B (human); compound 0.1 µM): 95%
residual activity (GSK3B (human); compound 1.0 µM): 96%
residual activity (MELK (human); compound 0.1 µM): 43%
residual activity (MELK (human); compound 1.0 µM): 26%
residual activity (PRKCZ (human); compound 0.1 µM): 90%
residual activity (PRKCZ (human); compound 1.0 µM): 95%
residual activity (DYRK1A (human); compound 0.1 µM): 99%
residual activity (DYRK1A (human); compound 1.0 µM): 106%
residual activity (IKBKE (human); compound 0.1 µM): 34%
residual activity (IKBKE (human); compound 1.0 µM): 23%
residual activity (CAMKK2 (human); compound 0.1 µM): 58%
residual activity (CAMKK2 (human); compound 1.0 µM): 21%
residual activity (DAPK1 (human); compound 0.1 µM): 84%
residual activity (DAPK1 (human); compound 1.0 µM): 72%
residual activity (MARK1 (human); compound 0.1 µM): 16%
residual activity (MARK1 (human); compound 1.0 µM): 9%
residual activity (MAPK9 (human); compound 0.1 µM): 97%
residual activity (MAPK9 (human); compound 1.0 µM): 106%
residual activity (SYK (human); compound 0.1 µM): 109%
residual activity (SYK (human); compound 1.0 µM): 93%
residual activity (MAP2K6 (human); compound 0.1 µM): 105%
residual activity (MAP2K6 (human); compound 1.0 µM): 113%
residual activity (FGFR1 (human); compound 0.1 µM): 83%
residual activity (FGFR1 (human); compound 1.0 µM): 63%
residual activity (PRKACA (human); compound 0.1 µM): 90%
residual activity (PRKACA (human); compound 1.0 µM): 100%
residual activity (PHKG1 (human); compound 0.1 µM): 78%
residual activity (PHKG1 (human); compound 1.0 µM): 28%
residual activity (STK3 (human); compound 0.1 µM): 110%
residual activity (STK3 (human); compound 1.0 µM): 129%
residual activity (ERBB4 (human); compound 0.1 µM): 90%
residual activity (ERBB4 (human); compound 1.0 µM): 95%
residual activity ([1]; compound 0.1 µM): 81%
residual activity ([1]; compound 1.0 µM): 94%
residual activity (BRSK2 (human); compound 0.1 µM): 88%
residual activity (BRSK2 (human); compound 1.0 µM): 75%
residual activity (MKNK1 (human); compound 0.1 µM): 89%
residual activity (MKNK1 (human); compound 1.0 µM): 96%
Compound: O=C(NCCCNc1nc(Nc2cccc(CN3CCOCC3)c2)ncc1C1CC1)C1CCC1
